Experimental data reported in paper PMC11992225, “Antibacterial compounds against non-growing and intracellular bacteria” (npj Antimicrobials and Resistance, 2025).
In brackets after ≈: the same amount, converted by molar mass. Where two headings read alike, the source gives them in different places.

Columns and labels:
S. aureus DSM2569 = experiment: MIC, standard microdilution assay, growing S. aureus; type: cell-based, Staphylococcus aureus; details: S. aureus, CA-MHB pH 7.4, read-out: MIC (μM) CA-MHB
Summary of the method: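 Medium: CA-MHB + 40 mM HEPES, pH 7.4 (UPEC, P. aeruginosa, S. aureus); LPM + 30 mM MES, pH 5.5 (UPEC, extra condition); TSB (S. flexneri). Microdilution format, n = 3.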

non-growing UPEC CFT073 = experiment: Dilution-regrowth assay (screen, hit validation, dose-response) on stationary-phase UPEC; type: cell-based, Escherichia coli; details: for EC50: Escherichia coli
Summary of the method: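 Regrowth (OD600 after 6 h, 37 °C) of diluted non-growing CFT073, following 24 h compound treatment of 24 h stationary cultures, defines activity relative to untreated control. Screen at 20 µM, validation at 20, 10, 5 µM (duplicates), dose–response in three biological replicates fitted by five-parameter logistic.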

[1] = E. coli, LPM pH 5.5, regrowth delay of non-growing bacteria, 24 h treatment, OD600 6 h after 2500-fold dilution, read-out: EC50
[2] = E. coli, pH 7.4, regrowth delay of non-growing bacteria, 1:4 CA-MHB, 24 h treatment, OD600 6 h after 2500-fold dilution, read-out: EC50

CO[C@H]1/C=C/O[C@@]2(C)Oc3c(C)c(O)c4c(O)c(c(/C=N/N5CCN(C)CC5)c(O)c4c3C2=O)NC(=O)/C(C)=C\C=C\[C@H](C)[C@H](O)[C@@H](C)[C@@H](O)[C@@H](C)[C@H](OC(C)=O)[C@@H]1C [Rifampicin] was tested, and the MIC (S. aureus DSM2569; Staphylococcus aureus, DSM2569) was 0.0125 µM (≈ 0.0103 µg/mL), the EC50 (non-growing UPEC CFT073; [1]) was 950 nM and the EC50 (non-growing UPEC CFT073; LPM pH 5.5 (red curve), medium assigned by comparison with Dataset 1, read-out: EC50 (regrowth inhibition curve, Fig. S4)) was 970 nM.
Plicamycin was tested, and the MIC (S. aureus DSM2569) was 0.25 µM, the “Regrowth, OD600 at 6h or 8h after dilution into drug-free medium (average)” value (non-growing UPEC CFT073; E. coli in 1:4 CA-MHB (pH 7.4), drug concentration 0.25) was 0.612 and the “Regrowth, OD600 at 6h or 8h after dilution into drug-free medium (average)” value (non-growing UPEC CFT073; E. coli in 1:4 CA-MHB (pH 7.4), drug concentration 0.5) was 0.607. For the same compound, the “Regrowth, OD600 at 6h or 8h after dilution into drug-free medium (average)” value (non-growing UPEC CFT073; E. coli in 1:4 CA-MHB (pH 7.4), drug concentration 1) was 0.618, the “Regrowth, OD600 at 6h or 8h after dilution into drug-free medium (average)” value (non-growing UPEC CFT073; E. coli in 1:4 CA-MHB (pH 7.4), drug concentration 2.5) was 0.623 and the “Regrowth, OD600 at 6h or 8h after dilution into drug-free medium (average)” value (non-growing UPEC CFT073; E. coli in 1:4 CA-MHB (pH 7.4), drug concentration 5) was 0.619. The “Regrowth, OD600 at 6h or 8h after dilution into drug-free medium (average)” value (non-growing UPEC CFT073; E. coli in 1:4 CA-MHB (pH 7.4), drug concentration 10) was 0.615, the “Regrowth, OD600 at 6h or 8h after dilution into drug-free medium (average)” value (non-growing UPEC CFT073; E. coli in 1:4 CA-MHB (pH 7.4), drug concentration 30) was 0.623 and the “Regrowth, OD600 at 6h or 8h after dilution into drug-free medium (average)” value (non-growing UPEC CFT073; E. coli in LPM (pH 5.5), drug concentration 0.25) was 0.574. For the same compound, the “Regrowth, OD600 at 6h or 8h after dilution into drug-free medium (average)” value (non-growing UPEC CFT073; E. coli in LPM (pH 5.5), drug concentration 0.5) was 0.571, the “Regrowth, OD600 at 6h or 8h after dilution into drug-free medium (average)” value (non-growing UPEC CFT073; E. coli in LPM (pH 5.5), drug concentration 1) was 0.572 and the “Regrowth, OD600 at 6h or 8h after dilution into drug-free medium (average)” value (non-growing UPEC CFT073; E. coli in LPM (pH 5.5), drug concentration 2.5) was 0.561. The “Regrowth, OD600 at 6h or 8h after dilution into drug-free medium (average)” value (non-growing UPEC CFT073; E. coli in LPM (pH 5.5), drug concentration 5) was 0.562, the “Regrowth, OD600 at 6h or 8h after dilution into drug-free medium (average)” value (non-growing UPEC CFT073; E. coli in LPM (pH 5.5), drug concentration 10) was 0.546 and the “Regrowth, OD600 at 6h or 8h after dilution into drug-free medium (average)” value (non-growing UPEC CFT073; E. coli in LPM (pH 5.5), drug concentration 30) was 0.390. The “activity against non-growing UPEC in LPM (pH 5.5) compared to 1:4 CA-MHB (pH 7.4)” value (non-growing UPEC CFT073; regrowth delay and killing, Figs. 2 and 3) was “potentiated by the low pH”.
CN1C[C@@H]2C[C@H]1CN2c1cc2c(cc1F)c(=O)c(C(=O)O)cn2C1CC1 [Danofloxacin] showed an MIC (S. aureus DSM2569; Staphylococcus aureus, DSM2569) of 0.5 µM (≈ 0.179 µg/mL) and an EC50 (non-growing UPEC CFT073; [2]) of 2160 nM.
CC[C@H]1OC(=O)C[C@@H](O)[C@H](C)[C@@H](O[C@@H]2O[C@H](C)C[C@H](N(C)C)[C@H]2O)[C@@H](CC=O)C[C@@H](C)C(=O)/C=C/[C@]2(C)O[C@H]2[C@@H]1C [Rosamicin] showed an MIC (S. aureus DSM2569; Staphylococcus aureus, DSM2569) of 2 µM (≈ 1.16 µg/mL) and an EC50 (non-growing UPEC CFT073; [2]) of 858 nM.
Work on C[C@H]1NCc2cc(-c3ccc4c(=O)c(C(=O)O)cn(C5CC5)c4c3OC(F)F)ccc21 [Garenoxacin] yielded an MIC (S. aureus DSM2569; Staphylococcus aureus, DSM2569) of 0.125 µM (≈ 0.0533 µg/mL) and an EC50 (non-growing UPEC CFT073; [2]) of 2190 nM.
Work on CCN1CCN(c2cc3c(cc2F)c(=O)c(C(=O)O)cn3C2CC2)CC1 [Enrofloxacin] yielded an MIC (S. aureus DSM2569; Staphylococcus aureus, DSM2569) of 0.5 µM (≈ 0.18 µg/mL), an EC50 (non-growing UPEC CFT073; [1]) of 21500 nM and an EC50 (non-growing UPEC CFT073; [2]) of 5170 nM.
